Experimental findings from paper PMC7463537, “Synthesis and Evaluation of Antimicrobial and Cytotoxic Activity of Oxathiine-Fused Quinone-Thioglucoside Conjugates of Substituted 1,4-Naphthoquinones” (Molecules, 2020) are described below.

Like-named read-outs stand apart in the source and are kept apart here.

In one data set the test system is C. albicans KMM 453. The data set is described as follows: Agar diffusion method, C. albicans. It counts as cell-based. As to conditions: Candida albicans, KMM453, 48 h, 100 µg/well, 48 h at 28 °C; read-out: Diameter of Zone Inhibition, C. albicans. The gist of the method:
(§1)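 Compounds dissolved in DMSO at 1.0, 0.1 and 0.01 mg/mL were tested by agar diffusion on trypticase-soy agar. Plates were incubated 24 h at 37 °C for bacteria and 48 h at 28 °C for the fungus. Growth-inhibition zone diameters (mm) were measured including well diameter.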
In general terms: A growth-free zone around the sample is the usual read-out of agar diffusion tests.

Data set [1] is described as follows: Cytotoxicity, statements of the text over all tested cell lines. The note with it: human, mouse.
For another data set, the system named is B. cereus ATCC 10702. The data set is described as follows: Agar diffusion method, B. cereus. As to conditions: 100 µg/well, 24 h, incl. 7 mm well; for zone of inhibition at 100 µg/disc: Bacillus cereus, ATCC10702, 24 h, read-out: Diameter of Zone Inhibition, B. cereus. More on the design: key to Diameter of Zone Inhibition, B. cereus: Zones within 20–40 mm mean strong antibiotic activity; zones up to 20 mm—moderate; ≤10 mm—weak; +—insignificant. It counts as cell-based, Bacillus cereus. The gist of the method: as §1

Data set [2] concerns mouse neuroblastoma (Neuro 2a). The experiment in a line: Cytotoxicity, MTT assay, Neuro 2a cells. As to conditions: for EC50: 24 h, read-out: Cytotoxicity (EC50), Neuro 2a; for Selectivity Index (SI), Neuro-2a: SI = EC50 (Jb6 Cl 41-5a normal cells)/EC50 (tumor cells). On the technique in general: Formazan colour is commonly taken as a measure of viable cells.
For data set [3], the system named is mouse ascites Ehrlich carcinoma. The experiment in a line: Cytotoxicity, nonspecific esterase (FDA) assay, ascites Ehrlich carcinoma cells. The note with it: for EC50: 24 h, read-out: Cytotoxicity (EC50), Ascites Ehrlich Carcinoma; for Selectivity Index (SI), Ascitic Ehrlich Carcinoma: SI = EC50 (Jb6 Cl 41-5a normal cells)/EC50 (tumor cells).
For data set [4], the system named is S. aureus ATCC 21027. The data set is described as follows: Agar diffusion method, S. aureus. It counts as cell-based, Staphylococcus aureus. The note with it: Staphylococcus aureus, ATCC21027, 24 h, 100 µg/well, 24 h, incl. 7 mm well; read-out: Diameter of Zone Inhibition, S. aureus. A digest of the protocol:
as §1

For data set [5], the system named is human cervical cancer (HeLa). The experiment in a line: Cytotoxicity, MTT assay, HeLa cells. The note with it: for EC50: 24 h, read-out: Cytotoxicity (EC50), HeLa; for Selectivity Index (SI), HeLa: SI = EC50 (Jb6 Cl 41-5a normal cells)/EC50 (tumor cells).
The subject of a further data set is E. coli K-12. The data set is described as follows: Agar diffusion method, E. coli. It counts as cell-based, Escherichia coli. The note with it: Escherichia coli, K12; 100 µg/well; read-out: Diameter of Zone Inhibition, E. coli. A digest of the protocol: as §1
The next data set concerns P. aeruginosa ATCC 27853. The experiment in a line: Agar diffusion method, P. aeruginosa. It counts as cell-based, Pseudomonas aeruginosa. As to conditions: for zone of inhibition at 100 µg/disc: Pseudomonas aeruginosa, ATCC27853, 100 µg/well, read-out: Diameter of Zone Inhibition, P. aeruginosa. The gist of the method:
as §1

Data set [6] is described as follows: Cytotoxicity, MTT assay, Jb6 Cl 41-5a normal epithelial cells. As to conditions: mouse, Jb6 Cl 41-5a normal epithelial cells.
The test system of data set [7] is Gram-positive bacteria (S. aureus, B. cereus). The data set is described as follows: Agar diffusion method, Gram-positive strains. It counts as cell-based, Staphylococcus aureus, Bacillus cereus. As to conditions: Staphylococcus aureus; 100 µg/well; read-out: Antimicrobial activity / inhibition zone diameter, Gram-positive bacteria. The method, then:
Elyakov Pacific Institute of Bioorganic Chemistry, Far East Branch, Russian Academy of Sciences. Test substances were dissolved in DMSO at concentrations of 1.0, 0.1, and 0.01 mg/mL. All strains were grown on trypticase-soy agar TSA (BBL) at 37 °C. […] After incubation of the dishes at 37 °C for 24 h (for bacteria) and 48 h (for the fungus) at 28 °C, the diameters of the growth inhibition zones of pathogenic microorganisms (mm) were measured, including the diameter of the wells. Commercial antibacterial drugs (vancomicin and gentamicin) and antifungal (clotrimazol) drugs were used as positive controls.

In data set [8] the test system is mouse normal epithelial cell line (JB6 Cl 41-5a). The data set is described as follows: Cytotoxicity, MTT assay, Jb6 Cl 41-5a normal epithelial cells. As to conditions: read-out: Cytotoxicity (EC50), Jb6 Cl 41-5a; MTT reagent, 24 h, non-cancer cells.
For data set [9], the system named is S. aureus ATCC 21027. The data set is described as follows: Minimum inhibitory concentration, broth microdilution. It counts as cell-based, Staphylococcus aureus. The note with it: Staphylococcus aureus, ATCC21027; broth microdilution, 24 h; read-out: Minimum inhibitory concentration (MIC) against S. aureus. The protocol:
Stocks of substances were prepared in DMSO at a concentration of 10 mM. All studied compounds were tested in concentrations from 1.5 μM to 100 μM using twofold dilution. All tested compounds were add to the wells of the plates in a volume of 20 μL diluted in PBS (DMSO concentration < 1%). The bacterial culture of S. aureus ATCC 21027 (Collection of Marine Microorganisms PIBOC FEB RAS) was cultured in a Petri dish at 37 °C for 24 h on solid medium with the following composition; pepton—5.0 g/L, K2HPO4—0.2 g/L, glucose—1.0 g/L, MgSO4—0.05 g/L, yeast extract—1 g/L, agar—16.0 g/L, and distilled water—1.0 L. The pH of the medium was adjusted to 7.2–7.4 with NaOH solution.
The antimicrobial activity of the compounds was determined by the minimum inhibitory concentration (MIC) according to the method adopted by the Clinical and Laboratory Standards Institute (CLSI). Methods for dilution antimicrobial susceptibility tests for bacteria that grow aerobically followed the approved standard—tenth edition. CLSI document M07-A10, PA: Clinical and Laboratory Standards Institute; 2015, with a slight modification of the medium. The assays were performed in 96-well microplates in appropriate broth (pepton—5.0 g/L, K2HPO4—0.2 g/L, glucose—1.0 g/L, MgSO4—0.05 g/L, yeast extract—1 g/L, casein hydrolyzate—2.5 g/L, distilled water—1L). […] The MIC value is defined as the lowest concentration of compounds resulting in the complete inhibition of bacterial growth by measuring the absorbance at 600 nm with a microplate reader (BioTek, Winooski, Vt, USA). All experiments were performed twice in triplicate. Gentamicin was used as a positive control in concentration 1 mg/mL; 1% DMSO solution in PBS as a negative. The selectivity index for S. aureus has been defined as the ratio of EC50 for normal cells and the MIC value for the bacterial culture (SI = EC50/MIC).

Another data set in a line: in vitro. The note with it: mouse.
Another data set in a line: Solubility in DMSO. It counts as physicochemical. The note with it: did not allow measurement of cytotoxic activity.

The term EC50 denotes the concentration needed to bring the measured effect to its halfway point. Take `O=C1C2=C(S[C@@H]3O[C@H](CO)[C@@H](O)[C@H](O)[C@H]3O2)C(=O)c2c(O)cccc21` [Compound 19a, (2R,3S,4S,4aR,12aS)-3,4,10-Trihydroxy-2-hydroxymethyl-3,4,4a,12a-tetrahydro-2H-naphtho[2,3-b]pyrano[2,3-e][2,5]oxathiine-6,11-dione]: the zone of inhibition at 100 µg/disc in the data set on C. albicans KMM 453, with B. cereus ATCC 10702, in the data set on S. aureus ATCC 21027 [4], in the data set with E. coli K-12 and with P. aeruginosa ATCC 27853 was 0 mm each time. The EC50 at 24 h in data set [1] was 0.6 to 0.9 µM; in [6], 5.6 µM. For the same compound, the EC50 was 4.1 µM in data set [2] (N2a); 0.6 µM in data set [3] (Mus musculus, Ehrlich); 3.7 µM in data set [5] (Homo sapiens, HeLa). In addition, in [2], the “Selectivity Index (SI), Neuro-2a” value stood at 1.4. For the same compound, in data set [3], the “Selectivity Index (SI), Ascitic Ehrlich Carcinoma” value is listed as 9.3. For the same compound, the “Selectivity Index (SI), HeLa” value in data set [5] is given as 1.5.

`O=C1C2=C(S[C@@H]3O[C@H](CO)[C@H](O)[C@H](O)[C@H]3O2)C(=O)c2c(O)cccc21` [Compound 19b, (2R,3R,4S,4aR,12aS)-3,4,10-Trihydroxy-2-hydroxymethyl-3,4,4a,12a-tetrahydro-2H-naphtho[2,3-b]pyrano-[2,3-e][2,5]oxathiine-6,11-dione]: the zone of inhibition at 100 µg/disc was 0 mm in the data set with C. albicans KMM 453; 8 ± 2 mm with B. cereus ATCC 10702; 0 mm in the data set with S. aureus ATCC 21027 [4]; at most 10 mm in data set [7]; 0 mm in the data set on E. coli K-12; 0 mm with P. aeruginosa ATCC 27853. Moreover, the EC50 at 24 h was 0.6 to 0.9 µM in data set [1] and 0.9 µM in [6]. Also, the 50% effective concentration (EC50) in [2] (N2a) turned out to be 2.3 µM; in data set [3] (Mus musculus, Ehrlich), 0.7 µM; in data set [5] (Homo sapiens, HeLa) it was 2.7 µM. Besides, the “Selectivity Index (SI), Neuro-2a” value in data set [2] is 0.4. The “Selectivity Index (SI), Ascitic Ehrlich Carcinoma” value in [3] is 1.3. In addition, in data set [5], the “Selectivity Index (SI), HeLa” value stood at 0.3.

With `C=C(C)CCCC1(C)OC(=O)C23CCC4C(=CCC5C(C)(C)C(OC6OCC(OS(=O)(=O)O)C(O)C6OC6OC(C)C(OC7OC(CO)C(O)C(OC8OC(CO)C(O)C(OC)C8O)C7O)C(O)C6OC6OCC(O)C(O)C6O)CCC45C)C2(C)CC(=O)C13` (stereo not shown) [Cucumarioside A2-2, reference compound], the EC50 in data set [2] (MTT reagent) worked out at 37.5 µM; in data set [3] (FDA) it was 18.5 µM; in data set [5] (MTT reagent) it was 42.4 µM; in [8], 15.1 µM.

In the case of `O=C1C=CC(=O)c2c(O)cccc21` [Juglone, 5-hydroxy-1,4-naphthoquinone, reference compound], the concentration for a half-maximal effect (EC50) at 24 h in [1] was over 100 µM. Further, the MIC in the data set on S. aureus ATCC 21027 [9] is over 100 µM. Also, the zone of inhibition at 100 µg/disc was 0 mm in the data set on B. cereus ATCC 10702, 0 mm in the data set with S. aureus ATCC 21027 [4], 0 mm in the data set on E. coli K-12 and under 20 mm in the data set on P. aeruginosa ATCC 27853. The 50% effective concentration (EC50) in [2] (N2a) is over 100 µM; in “in vitro” it was over 100 µM; in data set [3] (Mus musculus, Ehrlich), over 100 µM; in [5] (Homo sapiens, HeLa) it was over 100 µM. Besides, in the data set with P. aeruginosa ATCC 27853 (100 µg/well), the “Diameter of Zone Inhibition, P. aeruginosa” value is reported as 12 ± 2 mm.

Usually melting point stands for the temperature, or range, at which the solid turns liquid. In turn, `COc1ccc(OC)c2c1C(=O)C1=C(S[C@@H]3O[C@H](CO)[C@H](O)[C@H](O)[C@H]3O1)C2=O` [Compound 17b, (2R,3R,4S,4aR,12aS)-3,4-Dihydroxy-2-hydroxymethyl-7,10-dimethoxy-3,4,4a,12a-tetrahydro-2H-naphtho[2,3-b]pyrano[2,3-e][2,5]oxathiine-6,11-dione] registered a melting point of over 350 °C. Further, the zone of inhibition at 100 µg/disc with C. albicans KMM 453 is 0 mm. The “Diameter of Zone Inhibition, B. cereus” value in the data set on B. cereus ATCC 10702 is reported as “+”. Besides, in “Solubility in DMSO”, the “Solubility in DMSO” value was “poor solubility”. Also, the zone of inhibition at 100 µg/disc in the data set with S. aureus ATCC 21027 [4] is 0 mm. Also, the zone of inhibition at 100 µg/disc with E. coli K-12 was determined as 0 mm. In addition, the zone of inhibition at 100 µg/disc with P. aeruginosa ATCC 27853 came out at 0 mm.
